Source: article PMC12127850 (RSC Medicinal Chemistry, 2025)
Counter-ions that a name gives are not always drawn. Each block holds one compound with its values, some of them ahead of it.

What was measured:
Assay type in all cases: cell-based
[1] = molecular target: T1, prostate-specific membrane antigen (PSMA) (Homo sapiens, UniProt Q04609); assay: blocking of […]-PSiMA uptake in LNCaP cells by […] 2-PMPA
[2] = molecular target: T1, prostate-specific membrane antigen (PSMA); assay: in vivo PET blocking of […]-PSiMA uptake in LNCaP tumors
[3] = molecular target: T1, prostate-specific membrane antigen (PSMA); assay: competitive displacement of […]-PSMA-1007 in PSMA-expressing LNCaP cells

T1 sequence (Q04609 whole entry): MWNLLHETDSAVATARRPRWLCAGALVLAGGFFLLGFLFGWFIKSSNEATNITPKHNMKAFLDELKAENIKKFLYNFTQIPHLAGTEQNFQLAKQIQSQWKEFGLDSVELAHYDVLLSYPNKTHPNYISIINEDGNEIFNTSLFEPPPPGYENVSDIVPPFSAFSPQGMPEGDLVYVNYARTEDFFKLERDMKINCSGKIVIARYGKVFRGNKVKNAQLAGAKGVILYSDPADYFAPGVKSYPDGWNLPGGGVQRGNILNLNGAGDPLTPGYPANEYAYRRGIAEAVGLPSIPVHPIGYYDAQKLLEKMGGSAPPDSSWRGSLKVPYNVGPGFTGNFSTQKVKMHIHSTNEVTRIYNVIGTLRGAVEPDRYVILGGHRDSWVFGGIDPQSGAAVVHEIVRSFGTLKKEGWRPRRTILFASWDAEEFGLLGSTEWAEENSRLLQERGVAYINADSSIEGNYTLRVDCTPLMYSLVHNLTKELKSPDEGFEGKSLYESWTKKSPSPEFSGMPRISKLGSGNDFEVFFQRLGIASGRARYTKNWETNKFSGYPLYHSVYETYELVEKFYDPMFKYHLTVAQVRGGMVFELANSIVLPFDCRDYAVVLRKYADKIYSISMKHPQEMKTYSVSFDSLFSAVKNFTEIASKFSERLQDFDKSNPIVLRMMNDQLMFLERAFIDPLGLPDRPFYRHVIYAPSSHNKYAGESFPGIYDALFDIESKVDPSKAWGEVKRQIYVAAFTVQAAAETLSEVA

Compound: O=C(O)CCC(CP(=O)(O)O)C(=O)O (stereo not drawn) [2-PMPA, 2-(phosphonomethyl)pentanedioic acid]
% blocking at 1 μM [1]: 75 % blocking at 1 μM

% reduction of tumor uptake [2]: 20 ± 10 % reduction of tumor uptake
Compound: O=C(O)CC[C@H](NC(=O)N[C@@H](CCCCNC(=O)c1ccc(F)nc1)C(=O)O)C(=O)O [DCFPyL]

Compound: CC(C)(C)[Si](F)(c1ccc(C(=O)N[C@H](CC(=O)O)C(=O)N[C@H](CC(=O)O)C(=O)NCC[N+](C)(C)CCn2cc(CCCCCCCCC(=O)NCCCC[C@H](NC(=O)N[C@@H](CCC(=O)O)C(=O)O)C(=O)O)nn2)cc1)C(C)(C)C [compound 14, {2-[(2R)-3-Carboxy-2-[(2R)-3-carboxy-2-({4-[di-tert-butyl(fluoro)silyl]phenyl}formamido)propanamido]propanamido]ethyl}({2-[4-(8-{[(5S)-5-carboxy-5-({[(1S)-1,3-dicarboxypropyl]carbamoyl}amino)pentyl]carbamoyl}octyl)-1H-1,2,3-triazol-1-yl]ethyl})dimethylazanium trifluoroacetate]
IC50 [3]: 154 ± 47 nM
